Laboratory results as given in patent EP4813989A1, “CRYSTAL, PHARMACEUTICAL COMPOSITION, PREPARATION METHOD THEREFOR, AND USE THEREOF” (TYK Medicines, Inc., priority 2023, dated 2025).

What was measured:
Type in all cases: physicochemical
[1] = Accelerated test, related substances by HPLC; details: 40°C±2°C, 75%RH±5%RH; for Impurity content RRT0.55 / Impurity content RRT0.66 / Impurity content RRT0.71 / Impurity content RRT0.94 / Impurity content RRT1.02 / Impurity content RRT1.06 / Impurity content RRT1.08 / Impurity content RRT1.15 / Total impurities: open
Procedure: An investigation method for the accelerated test can be seen in Table 14 below.
Change results of related substances in each crystal form under the accelerated condition (40°C±2°C, 75%RH±5%RH) can be seen in Table 18.
HPLC detection results of related substances under the accelerated condition can be seen as follows: Table 18

[2] = High-humidity test, related substances by HPLC; details: 90%RH±5%RH; for Impurity content RRT0.55 / Impurity content RRT0.66 / Impurity content RRT0.71 / Impurity content RRT0.94 / Impurity content RRT1.02 / Impurity content RRT1.06 / Impurity content RRT1.08 / Impurity content RRT1.15 / Total impurities: open
Text: An investigation method for the high-humidity test can be seen in Table 12 below.
Results of related substances in each crystal form under the high-humidity condition (90%RH±5%RH) can be seen in Table 16.
HPLC detection results of related substances under the high-humidity condition can be seen as follows: Table 16

[3] = Dynamic vapor sorption (DVS) hygroscopicity
Procedure: Dynamic vapor sorption (DVS) was used to investigate hygroscopicities of an active pharmaceutical ingredient in different crystal forms.
Determination method: • instrument: dynamic vapor sorption analyzer; temperature: 25°C; protective gas and flow rate: N2, 200 mL/min; • dm/dt: 0.002%/min; RH range: 0%RH-100%RH; cycle: 1 full cycle.

[4] = Flowability test (angle of repose)
Procedure: A flowability determination method was as follows: an angle of repose was determined by using a device composed of 2 to 3 funnels connected in series in a staggered manner, and drug powder was slowly and uniformly passed through the funnels onto a stationary base with a diameter d, so as to form a symmetric powder pile with a single layer of powder at the bottom. During the formation of the powder pile, a height of the funnels was maintained within 2-4 cm from a top of the powder pile, a height h of the cone was determined, and the angle of repose was calculated as tanθ=h/(d/2).

[5] = Light exposure test, related substances by HPLC; details: for Impurity content RRT0.55 / Impurity content RRT0.66 / Impurity content RRT0.71 / Impurity content RRT0.94 / Impurity content RRT1.02 / Impurity content RRT1.06 / Impurity content RRT1.08 / Impurity content RRT1.15 / Total impurities: 4500lx±500lx, open
Text: An investigation method for the light exposure test can be seen in Table 13 below.
Results of related substances in each crystal form under the light exposure condition (4500lx±500lx) can be seen in Table 17.
HPLC detection results of related substances under the light exposure condition can be seen as follows: Table 17

## C[C@@H](Nc1ccn2ncc(C3=NOC(C)(C)N3)c2n1)c1cc(F)cc(F)c1F [crystal form A]
[1]; 32 days
  Increase of impurity RRT1.08 content: 0.04%
  Impurity content RRT0.55: 0.04%
  Impurity content RRT0.66: 0.20%
  Impurity content RRT0.71: 0.16%
  Impurity content RRT0.94: 0.04%
  Impurity content RRT1.02: 0.27%
  Impurity content RRT1.06: 0.07%
  Impurity content RRT1.08: 0.20%
  Impurity content RRT1.15: 0.06%
  Total impurities: 1.03%
[1]; 0 day
  Impurity content RRT0.55: 0.03%
  Impurity content RRT0.66: 0.18%
  Impurity content RRT0.71: 0.15%
  Impurity content RRT0.94: 0.04%
  Impurity content RRT1.02: 0.28%
  Impurity content RRT1.06: 0.07%
  Impurity content RRT1.08: 0.16%
  Impurity content RRT1.15: 0.03%
  Total impurities: 0.95%
[1]; 5 days
  Impurity content RRT0.55: 0.03%
  Impurity content RRT0.66: 0.20%
  Impurity content RRT0.71: 0.16%
  Impurity content RRT0.94: 0.04%
  Impurity content RRT1.02: 0.30%
  Impurity content RRT1.06: 0.08%
  Impurity content RRT1.08: 0.18%
  Impurity content RRT1.15: 0.03%
  Total impurities: 1.02%
[1]; 11 days
  Impurity content RRT0.55: 0.04%
  Impurity content RRT0.66: 0.20%
  Impurity content RRT0.71: 0.17%
  Impurity content RRT0.94: 0.03%
  Impurity content RRT1.02: 0.33%
  Impurity content RRT1.06: 0.09%
  Impurity content RRT1.08: 0.25%
  Impurity content RRT1.15: 0.04%
  Total impurities: 1.14%
[2]; 32 days
  Increase of impurity RRT1.02 content: no essential changes
  Increase of impurity RRT1.08 content: no essential change
  Increase of total impurities: 0.03%
  Impurity content RRT0.55: 0.03%
  Impurity content RRT0.66: 0.18%
  Impurity content RRT0.71: 0.16%
  Impurity content RRT0.94: 0.05%
  Impurity content RRT1.02: 0.26%
  Impurity content RRT1.06: 0.06%
  Impurity content RRT1.08: 0.18%
  Impurity content RRT1.15: 0.05%
  Total impurities: 0.98%
[2]; 0 day
  Impurity content RRT0.55: 0.03%
  Impurity content RRT0.66: 0.18%
  Impurity content RRT0.71: 0.15%
  Impurity content RRT0.94: 0.04%
  Impurity content RRT1.02: 0.28%
  Impurity content RRT1.06: 0.07%
  Impurity content RRT1.08: 0.16%
  Impurity content RRT1.15: 0.03%
  Total impurities: 0.95%
[2]; 5 days
  Impurity content RRT0.55: 0.03%
  Impurity content RRT0.66: 0.20%
  Impurity content RRT0.71: 0.16%
  Impurity content RRT0.94: 0.03%
  Impurity content RRT1.02: 0.31%
  Impurity content RRT1.06: 0.09%
  Impurity content RRT1.08: 0.21%
  Impurity content RRT1.15: 0.04%
  Total impurities: 1.07%
[2]; 11 days
  Impurity content RRT0.55: 0.03%
  Impurity content RRT0.66: 0.20%
  Impurity content RRT0.71: 0.16%
  Impurity content RRT0.94: 0.03%
  Impurity content RRT1.02: 0.30%
  Impurity content RRT1.06: 0.08%
  Impurity content RRT1.08: 0.21%
  Impurity content RRT1.15: 0.03%
  Total impurities: 1.05%
[3]
  Hygroscopicity (conclusion): did not have hygroscopicity under conventional conditions
[3]; at 0% humidity, 25°C
  DVS weight loss: 3-4%
[3]; humidity 90% or more
  DVS hygroscopicity: obvious hygroscopicity
[3]; humidity increased from 0% to 20%
  DVS weight gain: significant weight gain
[3]; humidity increased from 20% to 80%
  DVS hygroscopic weight gain: almost no hygroscopic weight gain
[4]
  angle of repose: approximately 32.7 °
[5]; 4500 lx±500 lx, 32 days
  Increase of impurity RRT0.66 content: 0.09%
  Increase of impurity RRT0.71 content: not increased
  Increase of impurity RRT1.02 content: not increased
  Increase of impurity RRT1.08 content: 0.09%
  Increase of total impurities: 0.13%
[5]; 0 day
  Impurity content RRT0.55: 0.03%
  Impurity content RRT0.66: 0.18%
  Impurity content RRT0.71: 0.15%
  Impurity content RRT0.94: 0.04%
  Impurity content RRT1.02: 0.28%
  Impurity content RRT1.06: 0.07%
  Impurity content RRT1.08: 0.16%
  Impurity content RRT1.15: 0.03%
  Total impurities: 0.95%
[5]; 5 days
  Impurity content RRT0.55: 0.03%
  Impurity content RRT0.66: 0.21%
  Impurity content RRT0.71: 0.14%
  Impurity content RRT0.94: 0.04%
  Impurity content RRT1.02: 0.30%
  Impurity content RRT1.06: 0.08%
  Impurity content RRT1.08: 0.20%
  Impurity content RRT1.15: 0.04%
  Total impurities: 1.03%
[5]; 11 days
  Impurity content RRT0.55: 0.03%
  Impurity content RRT0.66: 0.22%
  Impurity content RRT0.71: 0.15%
  Impurity content RRT0.94: 0.03%
  Impurity content RRT1.02: 0.31%
  Impurity content RRT1.06: 0.07%
  Impurity content RRT1.08: 0.22%
  Impurity content RRT1.15: 0.04%
  Total impurities: 1.08%
[5]; 32 days
  Impurity content RRT0.55: 0.03%
  Impurity content RRT0.66: 0.27%
  Impurity content RRT0.71: 0.10%
  Impurity content RRT0.94: 0.07%
  Impurity content RRT1.02: 0.28%
  Impurity content RRT1.06: 0.06%
  Impurity content RRT1.08: 0.25%
  Impurity content RRT1.15: 0.02%
  Total impurities: 1.08%
